According to US6653529B2, “Use of the maize X112 mutant ahas 2 gene and imidazolinone herbicides for selection of transgenic monocots, maize, rice and wheat plants resistant to the imidazolinone herbicides” (BASF Aktiengesellschaft, priority 2000, dated 2003):
“And” between values parts separate entries of the source, which are not always exact repeats. Equal entries are not always repeated.

What was measured:
Assay type in all cases: in vivo
[1] = test system: untransformed Nt rice plants; assay: Response of rice plants to various herbicides, seed set in greenhouse; conditions: post-emergence, 1× g ai/ha: PURSUIT 62.5, CADRE 32, ARSENAL 24, RAPTOR 32, SCEPTER 125, ACCENT 35, CLASSIC 5, AC322,140 20, LONDAX 68
Text: (§1) A total of 9 herbicides, 5 imidazolinones, two rice herbicides and ACCENT® (nicosulfuron) and CLASSIC® (clorimuron-ethyl) were applied in this study. Materials and methods were basically the same as described above, except that instead of 6″ pots, flats with 18 (3″×3″ per cell) cells were used, and 10-12 seeds were planted to one 3″×3″ cell. Ten plants were maintained in one cell in the post-emergence application. Each herbicide was sprayed at 4 different rates, 1, 2, 4, and 6×, as either pre or post-emergence applications with three replications per treatment. The name and amount of herbicide applied in this experiment and information relevant to their commercial applications are listed in Table 3. For simplicity and convenience, the lowest concentration used is referred as 1× rate, 2, 4 and 6× rates can be calculated as multiples of 1×.
(§2) To monitor plant response to various herbicides, data on fresh weight was collected. For pre-emergence applications, all plants from one cell were harvested 32 days after spraying (36-day old plants) and weighed. Twenty-nine days after herbicide application, 5 plants (44-day old plants) from each cell in the post-emergence application, were cut and weighed individually. Mean fresh weight for each treatment was calculated over three replications. The remaining 5 plants were grown in the greenhouse to maturity at which time, panicles of 3 plants were collected, and number of filled seeds and number of total kernels were counted to determine percentage of seed set.

transgenic rice Line 26 = assay: as above; conditions: post-emergence, 1× g ai/ha: PURSUIT 62.5, CADRE 32, ARSENAL 24, RAPTOR 32, SCEPTER 125, ACCENT 35, CLASSIC 5, AC322,140 20, LONDAX 68
Text: as §1, §2

transgenic rice Line 29 = assay: as above; conditions: post-emergence, 1× g ai/ha: PURSUIT 62.5, CADRE 32, ARSENAL 24, RAPTOR 32, SCEPTER 125, ACCENT 35, CLASSIC 5, AC322,140 20, LONDAX 68
Text: as §1, §2

[2] = test system: transgenic corn hybrid BAa-4; assay: Greenhouse spray test of corn lines with imidazolinone herbicides, injury score; conditions: BAa-4; for Score, individual plants (0 dead plants, 5 healthy plants with no injury): 16 days after treatment; for M.S.: score 0 (dead) to 5 (healthy), 16 days
Text: (§3) Grow one corn plant per pot (5×5 inch) in a 3×5 flat till three- to four-leaf stage (about 9 to 13 days depending on the weather). On the day of spraying, water the plants well and let excess water drip out. Spray plants on a belt-sprayer with the imidazolinone herbicides at desired rates. […] When temperature was too high, base water plants to prevent wilting. Closely observe the plants for the next two to three weeks. Symptoms of herbicide injury will be visible three days after spraying and susceptible plants will die within two to three weeks depending on temperature.
(§4) The plants were rated on a scale of 0-5 with 0 for dead plants and 5 for healthy plants with no or minimum injury.
(§5) Two transgenic hybrids BAa-4 and MAa-7 lines (see FIG. 5 for their pedigree), a non-transformed control line B×A (B73×A188), 8962IT (heterozygous XI12 imi-tolerant corn line), 8962 (wild type control) and 3395IR (homozygous XA17 imi-resistant corn line) (8962IT and 8962 were from ICI, now Garst Seed Company, Slater, Iowa 50244, and 3395IR was from Pioneer Hi-Bred International Inc, Iowa 50306-3453). Plants were sprayed with 4, 8, 16 or 20×PURSUIT® imazethapyr, ARSENAL® imazapyr, CADRE® imazameth or RAPTOR® imazamox. Plants were scored 0 to 5 (with 0 being dead plants, 5 being healthy plants with no injury) individually 16 days after herbicide treatments. […] For the four tested imidazolinones, transgenic plants could tolerate higher rates of ARSENAL® imazapyr, PURSUIT® imazethapyr, than CADRE® imazameth and RAPTOR® imazamox.

[3] = test system: 3395IR (homozygous XA17 imi-resistant corn line); assay: as above; conditions: for Score, individual plants (0 dead plants, 5 healthy plants with no injury): 16 days after treatment; for M.S.: score 0 (dead) to 5 (healthy), 16 days
Text: as §3, §4, §5

[4] = test system: non-transformed control corn line BxA (B73×A188); assay: as above; conditions: for Score, individual plants (0 dead plants, 5 healthy plants with no injury): 16 days after treatment; for M.S.: score 0 (dead) to 5 (healthy), 16 days
Text: as §3, §4, §5

[5] = test system: transgenic corn hybrid MAa-7; assay: as above; conditions: MAa-7; for Score, individual plants (0 dead plants, 5 healthy plants with no injury): 16 days after treatment; for M.S.: score 0 (dead) to 5 (healthy), 16 days
Text: as §3, §4, §5

[6] = test system: 8692IT (heterozygous XI12 imi-tolerant corn line); assay: as above; conditions: for Score, individual plants (0 dead plants, 5 healthy plants with no injury): 16 days after treatment; for M.S.: score 0 (dead) to 5 (healthy), 16 days
[7] = 4×: PURSUIT 250, RAPTOR 160, ARSENAL 96, CADRE 400 g/ha
[8] = 8×: PURSUIT 500, RAPTOR 320, ARSENAL 192, CADRE 800 g/ha
[9] = 16×: RAPTOR 640 g/ha, ARSENAL 384 g/ha, CADRE 1.6 kg/ha

## Cc1cnc(C2=NC(=O)C(C)(C(C)C)N2)c(C(=O)O)c1 (stereo not drawn) [CADRE ®, imazameth]
[1]; 1× rate
  % seed-set: 98%
  No. filled seeds/3 panicles: 92
  Total No. of kernels/3 panicles: 94
[1]; 2× rate
  % seed-set: 83%
  No. filled seeds/3 panicles: 76
  Total No. of kernels/3 panicles: 82
[1]; 4× rate
  % seed-set: 0%
  No. filled seeds/3 panicles: 0
  Total No. of kernels/3 panicles: 0
[1]; 6× rate
  % seed-set: 0%
  No. filled seeds/3 panicles: 0
  Total No. of kernels/3 panicles: 0
Transgenic rice Line 26; 1× rate
  % seed-set: 84%
  No. filled seeds/3 panicles: 133
  Total No. of kernels/3 panicles: 159
Transgenic rice Line 26; 2× rate
  % seed-set: 95%
  No. filled seeds/3 panicles: 153
  Total No. of kernels/3 panicles: 161
Transgenic rice Line 26; 4× rate
  % seed-set: 87%
  No. filled seeds/3 panicles: 124
  Total No. of kernels/3 panicles: 143
Transgenic rice Line 26; 6× rate
  % seed-set: 77%
  No. filled seeds/3 panicles: 131
  Total No. of kernels/3 panicles: 169
Transgenic rice Line 29; 1× rate
  % seed-set: 88%
  No. filled seeds/3 panicles: 154
  Total No. of kernels/3 panicles: 175
Transgenic rice Line 29; 2× rate
  % seed-set: 86%
  No. filled seeds/3 panicles: 143
  Total No. of kernels/3 panicles: 166
Transgenic rice Line 29; 4× rate
  % seed-set: 82%
  No. filled seeds/3 panicles: 126
  Total No. of kernels/3 panicles: 154
Transgenic rice Line 29; 6× rate
  % seed-set: 80%
  No. filled seeds/3 panicles: 127
  Total No. of kernels/3 panicles: 159
[2]; [7]
  Score, individual plants (0 dead plants, 5 healthy plants with no injury): 5
  M.S.: 5
[2]; [8]
  Score, individual plants (0 dead plants, 5 healthy plants with no injury): 3 (2×) and 2 (3×)
  M.S.: 2.4
[2]; [9]
  Score, individual plants (0 dead plants, 5 healthy plants with no injury): 3 and 1 and 0 (3×)
  M.S.: 0.8
[3]; [7]
  Score, individual plants (0 dead plants, 5 healthy plants with no injury): 5
  M.S.: 5
[3]; [8]
  Score, individual plants (0 dead plants, 5 healthy plants with no injury): 5
  M.S.: 5
[3]; [9]
  Score, individual plants (0 dead plants, 5 healthy plants with no injury): 4 (2×) and 5 (3×)
  M.S.: 4.6
[4]; [7]
  Score, individual plants (0 dead plants, 5 healthy plants with no injury): 0
  M.S.: 0
[4]; [8]
  Score, individual plants (0 dead plants, 5 healthy plants with no injury): 0
  M.S.: 0
[4]; [9]
  Score, individual plants (0 dead plants, 5 healthy plants with no injury): 0
  M.S.: 0
[5]; [7]
  Score, individual plants (0 dead plants, 5 healthy plants with no injury): 5 (4×) and 4
  M.S.: 4.8
[5]; [8]
  Score, individual plants (0 dead plants, 5 healthy plants with no injury): 2 (2×) and 4 (2×) and 3
  M.S.: 3
[5]; [9]
  Score, individual plants (0 dead plants, 5 healthy plants with no injury): 0 (2×) and 1 (3×)
  M.S.: 0.6
[6]; [7]
  Score, individual plants (0 dead plants, 5 healthy plants with no injury): 4 (3×) and 5 (2×)
  M.S.: 4.4
[6]; [8]
  Score, individual plants (0 dead plants, 5 healthy plants with no injury): 3 (3×) and 2 (2×)
  M.S.: 2.6
[6]; [9]
  Score, individual plants (0 dead plants, 5 healthy plants with no injury): 1 (2×) and 2 (3×)
  M.S.: 1.6
